Laboratory results as given in the NIST ThermoML archive (doi:10.1021/je4001894).
± gives the expanded uncertainty stated by the source.

Test: activity coefficient (dimensionless); of the first substance listed, at infinite dilution; xn = mol fraction of the nth substance listed
Conditions: 101 kPa, Liquid, Chromatography, x1 = 0

Row | Compound | activity coefficient (323.15 K) | activity coefficient (333.15 K) | activity coefficient (343.15 K)
1 | CC(C)CC(C)(C)C [2,2,4-trimethylpentane] + CCC[N+]1(C)CCCC1.O=S(=O)([N-]S(=O)(=O)C(F)(F)F)C(F)(F)F | 22.5 ± 1.5 | 22 ± 1.5 | 21.6 ± 1.5
2 | Cc1ccccc1 [toluene] + CCCC[N+]1(C)CCCC1.O=S(=O)([N-]S(=O)(=O)C(F)(F)F)C(F)(F)F | 1.25 ± 0.08 | 1.27 ± 0.08 | 1.29 ± 0.08
3 | c1ccccc1 [benzene] + CCCC[N+]1(C)CCCC1.O=S(=O)([N-]S(=O)(=O)C(F)(F)F)C(F)(F)F | 0.92 ± 0.06 | 0.93 ± 0.06 | 0.94 ± 0.06
4 | CC(C)O [propan-2-ol] + CCCC[N+]1(C)CCCC1.O=S(=O)([N-]S(=O)(=O)C(F)(F)F)C(F)(F)F | 1.9 ± 0.13 | 1.72 ± 0.12 | 1.57 ± 0.1
5 | Cc1ccccc1 [toluene] + CCC[N+]1(C)CCCC1.O=S(=O)([N-]S(=O)(=O)C(F)(F)F)C(F)(F)F | 1.37 ± 0.09 | 1.38 ± 0.09 | 1.45 ± 0.1
6 | CC(C)CC(C)(C)C [2,2,4-trimethylpentane] + CCCC[N+]1(C)CCCC1.O=S(=O)([N-]S(=O)(=O)C(F)(F)F)C(F)(F)F | 19.2 ± 1.3 | 17.9 ± 1.2 | 17.1 ± 1.2
7 | CCOCC [diethyl ether] + CCCC[N+]1(C)CCCC1.O=S(=O)([N-]S(=O)(=O)C(F)(F)F)C(F)(F)F | 2.53 ± 0.17 | 2.54 ± 0.17 | 2.6 ± 0.18
8 | c1ccsc1 [thiophene] + CCCC[N+]1(C)CCCC1.O=S(=O)([N-]S(=O)(=O)C(F)(F)F)C(F)(F)F | 0.82 ± 0.05 | 0.83 ± 0.05 | 0.84 ± 0.05
9 | CCO [ethanol] + CCCC[N+]1(C)CCCC1.O=S(=O)([N-]S(=O)(=O)C(F)(F)F)C(F)(F)F | 1.73 ± 0.12 | 1.57 ± 0.1 | 1.43 ± 0.09
10 | c1ccccc1 [benzene] + CCC[N+]1(C)CCCC1.O=S(=O)([N-]S(=O)(=O)C(F)(F)F)C(F)(F)F | 0.99 ± 0.06 | 1.01 ± 0.06 | 1.03 ± 0.06
11 | C1CCCCCC1 [cycloheptane] + CCCC[N+]1(C)CCCC1.O=S(=O)([N-]S(=O)(=O)C(F)(F)F)C(F)(F)F | 23.9 ± 1.6 | 32 ± 2.2 | 41.7 ± 2.9
12 | CCC[N+](=O)[O-] [1-nitropropane] + CCCC[N+]1(C)CCCC1.O=S(=O)([N-]S(=O)(=O)C(F)(F)F)C(F)(F)F | 0.74 ± 0.05 | 0.73 ± 0.05 | 0.73 ± 0.05
13 | CCCCCCCC [octane] + CCCC[N+]1(C)CCCC1.O=S(=O)([N-]S(=O)(=O)C(F)(F)F)C(F)(F)F | 28.2 ± 1.9 | 25.3 ± 1.7 | 23.5 ± 1.6
14 | CC#N [acetonitrile] + CCCC[N+]1(C)CCCC1.O=S(=O)([N-]S(=O)(=O)C(F)(F)F)C(F)(F)F | 0.52 ± 0.04 | 0.51 ± 0.04 | 0.5 ± 0.04
15 | ClC(Cl)Cl [trichloromethane] + CCC[N+]1(C)CCCC1.O=S(=O)([N-]S(=O)(=O)C(F)(F)F)C(F)(F)F | 0.85 ± 0.05 | 0.91 ± 0.06 | 0.96 ± 0.06
16 | CCCCCCCCC [nonane] + CCC[N+]1(C)CCCC1.O=S(=O)([N-]S(=O)(=O)C(F)(F)F)C(F)(F)F | 55.5 ± 3.8 | 48.7 ± 3.3 | 47.5 ± 3.2
17 | CCC(C)CC [3-methylpentane] + CCCC[N+]1(C)CCCC1.O=S(=O)([N-]S(=O)(=O)C(F)(F)F)C(F)(F)F | 12.3 ± 0.84 | 11.9 ± 0.81 | 11 ± 0.75
18 | c1ccncc1 [pyridine] + CCC[N+]1(C)CCCC1.O=S(=O)([N-]S(=O)(=O)C(F)(F)F)C(F)(F)F | 0.63 ± 0.04 | 0.63 ± 0.04 | 0.64 ± 0.04
19 | CCc1ccccc1 [ethylbenzene] + CCCC[N+]1(C)CCCC1.O=S(=O)([N-]S(=O)(=O)C(F)(F)F)C(F)(F)F | 1.83 ± 0.12 | 1.85 ± 0.12 | 1.87 ± 0.13
20 | CCC(=O)CC [pentan-3-one] + CCCC[N+]1(C)CCCC1.O=S(=O)([N-]S(=O)(=O)C(F)(F)F)C(F)(F)F | 0.73 ± 0.05 | 0.75 ± 0.05 | 0.77 ± 0.05
21 | CCC(=O)CC [pentan-3-one] + CCC[N+]1(C)CCCC1.O=S(=O)([N-]S(=O)(=O)C(F)(F)F)C(F)(F)F | 0.84 ± 0.05 | 0.82 ± 0.05 | 0.86 ± 0.06
22 | CO [methanol] + CCC[N+]1(C)CCCC1.O=S(=O)([N-]S(=O)(=O)C(F)(F)F)C(F)(F)F | 1.38 ± 0.09 | 1.28 ± 0.08 | 1.15 ± 0.07
23 | c1ccsc1 [thiophene] + CCC[N+]1(C)CCCC1.O=S(=O)([N-]S(=O)(=O)C(F)(F)F)C(F)(F)F | 0.86 ± 0.06 | 0.88 ± 0.06 | 0.89 ± 0.06
24 | CCCCCCCC [octane] + CCC[N+]1(C)CCCC1.O=S(=O)([N-]S(=O)(=O)C(F)(F)F)C(F)(F)F | 35.8 ± 2.5 | 31.1 ± 2.1 | 30.6 ± 2.1

Row | Compound | activity coefficient (323.15 K) | activity coefficient (333.15 K) | activity coefficient (343.15 K)
25 | CCC(C)=O [butanone] + CCC[N+]1(C)CCCC1.O=S(=O)([N-]S(=O)(=O)C(F)(F)F)C(F)(F)F | 0.57 ± 0.04 | 0.58 ± 0.04 | 0.64 ± 0.04
26 | CCCCCCCCCC [decane] + CCC[N+]1(C)CCCC1.O=S(=O)([N-]S(=O)(=O)C(F)(F)F)C(F)(F)F | 74.7 ± 5.1 | 65.7 ± 4.5 | 60 ± 4.1
27 | ClC(Cl)(Cl)Cl [tetrachloromethane] + CCC[N+]1(C)CCCC1.O=S(=O)([N-]S(=O)(=O)C(F)(F)F)C(F)(F)F | 2.55 ± 0.17 | 2.62 ± 0.18 | 2.64 ± 0.18
28 | CCCCCCCCCCC [undecane] + CCCC[N+]1(C)CCCC1.O=S(=O)([N-]S(=O)(=O)C(F)(F)F)C(F)(F)F | 76.9 ± 5.3 | 68.2 ± 4.7 | 61.1 ± 4.2
29 | CC1CCCC1 [methylcyclopentane] + CCCC[N+]1(C)CCCC1.O=S(=O)([N-]S(=O)(=O)C(F)(F)F)C(F)(F)F | 8.68 ± 0.59 | 8.24 ± 0.56 | 7.85 ± 0.54
30 | C=CCCCC [hex-1-ene] + CCCC[N+]1(C)CCCC1.O=S(=O)([N-]S(=O)(=O)C(F)(F)F)C(F)(F)F | 7.51 ± 0.51 | 7.21 ± 0.49 | 7.12 ± 0.49
31 | CCCCCC [hexane] + CCC[N+]1(C)CCCC1.O=S(=O)([N-]S(=O)(=O)C(F)(F)F)C(F)(F)F | 16.5 ± 1.1 | 15 ± 1 | 14.1 ± 0.96
32 | CCOCC [diethyl ether] + CCC[N+]1(C)CCCC1.O=S(=O)([N-]S(=O)(=O)C(F)(F)F)C(F)(F)F | 2.62 ± 0.18 | 2.7 ± 0.18 | 2.75 ± 0.19
33 | Cc1ccc(C)cc1 [1,4-dimethylbenzene] + CCCC[N+]1(C)CCCC1.O=S(=O)([N-]S(=O)(=O)C(F)(F)F)C(F)(F)F | 1.78 ± 0.12 | 1.8 ± 0.12 | 1.81 ± 0.12
34 | C1CCCCC1 [cyclohexane] + CCC[N+]1(C)CCCC1.O=S(=O)([N-]S(=O)(=O)C(F)(F)F)C(F)(F)F | 10.2 ± 0.7 | 9.53 ± 0.65 | 8.53 ± 0.58
35 | CCCO [propan-1-ol] + CCCC[N+]1(C)CCCC1.O=S(=O)([N-]S(=O)(=O)C(F)(F)F)C(F)(F)F | 2.07 ± 0.14 | 1.87 ± 0.13 | 1.68 ± 0.11
36 | CCCO [propan-1-ol] + CCC[N+]1(C)CCCC1.O=S(=O)([N-]S(=O)(=O)C(F)(F)F)C(F)(F)F | 2.17 ± 0.15 | 1.95 ± 0.13 | 1.79 ± 0.12
37 | C[N+](=O)[O-] [nitromethane] + CCCC[N+]1(C)CCCC1.O=S(=O)([N-]S(=O)(=O)C(F)(F)F)C(F)(F)F | 0.65 ± 0.04 | 0.58 ± 0.04 | 0.57 ± 0.04
38 | C#CCCCC [1-hexyne] + CCCC[N+]1(C)CCCC1.O=S(=O)([N-]S(=O)(=O)C(F)(F)F)C(F)(F)F | 2.89 ± 0.2 | 2.87 ± 0.2 | 2.83 ± 0.19
39 | C#CCCCC [1-hexyne] + CCC[N+]1(C)CCCC1.O=S(=O)([N-]S(=O)(=O)C(F)(F)F)C(F)(F)F | 3.35 ± 0.23 | 3.18 ± 0.22 | 3.01 ± 0.2
40 | CCC[N+](=O)[O-] [1-nitropropane] + CCC[N+]1(C)CCCC1.O=S(=O)([N-]S(=O)(=O)C(F)(F)F)C(F)(F)F | 0.77 ± 0.05 | 0.77 ± 0.05 | 0.77 ± 0.05
41 | CCCCCCCCCCC [undecane] + CCC[N+]1(C)CCCC1.O=S(=O)([N-]S(=O)(=O)C(F)(F)F)C(F)(F)F | 108 ± 7.4 | 92.8 ± 6.4 | 85.1 ± 5.8
42 | CCCCCC [hexane] + CCCC[N+]1(C)CCCC1.O=S(=O)([N-]S(=O)(=O)C(F)(F)F)C(F)(F)F | 13.9 ± 0.95 | 13.6 ± 0.93 | 12.6 ± 0.86
43 | c1ccncc1 [pyridine] + CCCC[N+]1(C)CCCC1.O=S(=O)([N-]S(=O)(=O)C(F)(F)F)C(F)(F)F | 0.59 ± 0.04 | 0.59 ± 0.04 | 0.59 ± 0.04
44 | CCC(C)CC [3-methylpentane] + CCC[N+]1(C)CCCC1.O=S(=O)([N-]S(=O)(=O)C(F)(F)F)C(F)(F)F | 14.3 ± 0.98 | 13.5 ± 0.92 | 11.7 ± 0.8
45 | CCCCCCC [heptane] + CCCC[N+]1(C)CCCC1.O=S(=O)([N-]S(=O)(=O)C(F)(F)F)C(F)(F)F | 19.7 ± 1.4 | 18.4 ± 1.3 | 17.5 ± 1.2
46 | C1COCCO1 [1,4-dioxane] + CCC[N+]1(C)CCCC1.O=S(=O)([N-]S(=O)(=O)C(F)(F)F)C(F)(F)F | 0.74 ± 0.05 | 0.74 ± 0.05 | 0.76 ± 0.05
47 | Cc1ccc(C)cc1 [1,4-dimethylbenzene] + CCC[N+]1(C)CCCC1.O=S(=O)([N-]S(=O)(=O)C(F)(F)F)C(F)(F)F | 1.96 ± 0.13 | 2 ± 0.14 | 2.03 ± 0.14
